US11661400B2, “NADPH oxidase inhibitors, pharmaceutical composition comprising the same, and application thereof” (TAIWANJ PHARMACEUTICALS CO., LTD., priority 2018, dated 2023)

Experiments:
[1] = target: T1, NOX1 (Homo sapiens, UniProt Q9Y5S8); experiment: NOX1 HT29 cell-based assay (luminol/HRP luminescence); conditions: HT29 cells, DMSO = 0%, GKT137831 = 100%; for inhibition at 0.1 µM / inhibition at 1 µM: HT-29
T1 construct: endogenous in cells; host or cells: HT29
T1 sequence (Q9Y5S8 1-564): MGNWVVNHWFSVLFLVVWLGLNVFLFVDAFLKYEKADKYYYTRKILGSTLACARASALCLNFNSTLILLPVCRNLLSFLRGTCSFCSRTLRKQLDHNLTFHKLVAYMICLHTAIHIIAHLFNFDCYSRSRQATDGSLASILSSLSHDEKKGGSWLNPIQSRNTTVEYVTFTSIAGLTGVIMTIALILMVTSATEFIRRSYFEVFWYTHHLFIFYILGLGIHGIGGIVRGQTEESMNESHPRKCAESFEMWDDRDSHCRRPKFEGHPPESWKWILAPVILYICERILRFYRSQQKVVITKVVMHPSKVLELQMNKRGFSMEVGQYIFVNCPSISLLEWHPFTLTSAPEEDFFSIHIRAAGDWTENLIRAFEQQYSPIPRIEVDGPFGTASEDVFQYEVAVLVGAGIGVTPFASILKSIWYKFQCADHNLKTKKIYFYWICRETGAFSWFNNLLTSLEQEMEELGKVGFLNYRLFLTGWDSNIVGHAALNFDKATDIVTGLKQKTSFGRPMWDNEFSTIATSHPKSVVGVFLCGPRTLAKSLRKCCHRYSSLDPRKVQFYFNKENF
T1 sequence (P13498 2-195 partner limits assumed): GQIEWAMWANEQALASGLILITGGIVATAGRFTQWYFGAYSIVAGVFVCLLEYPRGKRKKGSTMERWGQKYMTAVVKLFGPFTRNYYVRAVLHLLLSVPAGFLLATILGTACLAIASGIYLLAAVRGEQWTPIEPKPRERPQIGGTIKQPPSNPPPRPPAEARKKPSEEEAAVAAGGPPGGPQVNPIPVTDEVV
Outline: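 HT29 cells (1-2×10^5 per well) pretreated 30-60 min at 37 °C with compound at 100 nM and 1000 nM final, in duplicate, 0.1% DMSO. ROS read as luminol (100 μM)/HRP (0.4 U) luminescence. Activity normalised to DMSO (0%) and GKT137831 (100%).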

[2] = target: T2, NOX4 (Homo sapiens, UniProt Q9NPH5); experiment: NOX4 HEK293 overexpression cell-based assay (Amplex Red H2O2); conditions: HEK293 cells stably overexpressing NOX4, DMSO = 0, GKT137831 = 100; for inhibition at 1 µM: HEK293, 1000 nM; for inhibition at 0.1 µM: HEK293, 100 nM
T2 construct: expressed in transfected cells
T2 sequence (Q9NPH5 1-578): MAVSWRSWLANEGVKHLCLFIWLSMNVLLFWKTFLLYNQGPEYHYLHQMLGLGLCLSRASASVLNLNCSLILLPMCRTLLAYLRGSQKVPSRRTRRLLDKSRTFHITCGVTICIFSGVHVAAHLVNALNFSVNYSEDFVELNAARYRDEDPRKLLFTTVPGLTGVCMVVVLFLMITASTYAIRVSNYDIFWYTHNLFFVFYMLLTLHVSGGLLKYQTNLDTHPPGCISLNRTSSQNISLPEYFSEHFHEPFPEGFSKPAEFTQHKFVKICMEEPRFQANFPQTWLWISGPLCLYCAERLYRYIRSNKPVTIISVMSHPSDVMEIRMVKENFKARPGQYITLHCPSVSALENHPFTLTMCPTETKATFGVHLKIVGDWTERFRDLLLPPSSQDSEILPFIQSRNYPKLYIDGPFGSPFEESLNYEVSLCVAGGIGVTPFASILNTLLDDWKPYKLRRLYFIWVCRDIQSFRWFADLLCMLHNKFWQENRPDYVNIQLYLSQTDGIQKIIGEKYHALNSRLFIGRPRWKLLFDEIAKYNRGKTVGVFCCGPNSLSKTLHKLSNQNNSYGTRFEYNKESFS
T2 sequence (P13498 2-195 partner limits assumed): T1 sequence (P13498 2-195 partner limits assumed)
Outline: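 HEK293 cells stably overexpressing NOX4 (3×10^4) preincubated 30 min at 37° C with compound in KRPG buffer, then mixed with Amplex Red reagent solution (50 μM Amplex Red, 0.1 units/mL HRP) for 90 min at 37° C in the dark. Supernatant fluorescence read at 530/590 nm; DMSO set to 0 and GKT137831 to 100.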

[3] = target: T3, NOX2 (Homo sapiens, UniProt P04839); experiment: NOX2 HL60 cell-based assay (PMA oxidative burst, L012 chemiluminescence); conditions: DMSO-differentiated HL-60 cells, PMA-stimulated; for inhibition at 0.1 µM: HL-60, 100 nM; for inhibition at 1 µM: HL-60, 1000 nM
T3 construct: HL-60 cells, rich in NOX2 expression; endogenous in cells; host or cells: DMSO-differentiated HL-60
T3 sequence (P04839 2-570 limits assumed): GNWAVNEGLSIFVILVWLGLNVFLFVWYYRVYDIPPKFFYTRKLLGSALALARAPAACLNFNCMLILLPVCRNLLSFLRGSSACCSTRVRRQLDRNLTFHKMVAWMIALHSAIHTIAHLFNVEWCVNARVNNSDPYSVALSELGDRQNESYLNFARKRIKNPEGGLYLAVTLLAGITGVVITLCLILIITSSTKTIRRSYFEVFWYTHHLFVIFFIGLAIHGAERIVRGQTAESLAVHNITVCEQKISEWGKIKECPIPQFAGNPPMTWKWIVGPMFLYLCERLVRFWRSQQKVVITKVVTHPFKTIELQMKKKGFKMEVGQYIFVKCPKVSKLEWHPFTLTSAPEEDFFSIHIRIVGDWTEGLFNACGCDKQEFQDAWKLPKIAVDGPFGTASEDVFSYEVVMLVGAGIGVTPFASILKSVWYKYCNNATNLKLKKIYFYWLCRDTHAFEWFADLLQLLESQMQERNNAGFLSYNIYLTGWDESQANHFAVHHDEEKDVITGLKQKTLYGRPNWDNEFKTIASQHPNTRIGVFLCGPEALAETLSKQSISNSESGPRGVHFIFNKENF
T3 sequence (P13498 2-195 partner limits assumed): T1 sequence (P13498 2-195 partner limits assumed)
Outline: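 DMSO-differentiated HL-60 cells (2.5×10^5/well) with 100 μM L012 preincubated with compound 30-60 min at 37 °C in the dark. Oxidative burst triggered by 10 ng/mL PMA; superoxide chemiluminescence read every 5 min for 60 min.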

Row | Structure (SMILES) | inhibition at 0.1 µM [3] [%] | inhibition at 0.1 µM ([1]; 100 nM) [%] | inhibition at 1 µM ([1]; 1000 nM) [%] | inhibition at 1 µM [2] [%] | inhibition at 1 µM [3] [%] | inhibition at 0.1 µM [2] [%] | % Inhibition NOX1 ([1]; 100 nM) | % Inhibition NOX1 ([1]; 1000 nM) | % Inhibition NOX4 ([2]; 100 nM) | % Inhibition NOX4 ([2]; 1000 nM) | % Inhibition NOX2 ([3]; 1000 nM) | % Inhibition NOX2 ([3]; 100 nM)
1 | COc1cc2[nH]c(-c3ccccc3OC)c(O)c(=O)c2cc1OC [Compound 5] | ≤ 19 |  |  |  |  |  | A (the percent of inhibition of NOX by the compounds is larger than or equals to 80%) | A (the percent of inhibition of NOX by the compounds is larger than or equals to 80%) | C (the percent of inhibition of NOX by the compounds ranges from 2000 to 49%) | A (the percent of inhibition of NOX by the compounds is larger than or equals to 80%) | A (the percent of inhibition of NOX by the compounds is larger than or equals to 80%) | 
2 | COc1ccc(-c2[nH]c3cc(OC)c(OC)cc3c(=O)c2O)cc1 [Compound 2, 3-hydroxy-6,7-dimethoxy-2-(4-methoxyphenyl) quinolin-4(1H)-one 2,2,2-trifluoroacetate] | ≤ 19 | ≥ 80 | ≥ 80 | ≥ 80 | 50 to 79 |  |  |  | C (the percent of inhibition of NOX by the compounds ranges from 2000 to 49%) |  |  | 
3 | COc1ccccc1-c1[nH]c2cc3c(cc2c(=O)c1O)OCO3 [Compound 26] | 50 to 79 | ≥ 80 | ≥ 80 | ≥ 80 | ≥ 80 |  |  |  | C (the percent of inhibition of NOX by the compounds ranges from 2000 to 49%) |  |  | 
4 | COc1cc2[nH]c(-c3ccccc3F)c(O)c(=O)c2cc1OC [Compound 18] |  | ≥ 80 | ≥ 80 | 50 to 79 | 50 to 79 |  |  |  | C (the percent of inhibition of NOX by the compounds ranges from 2000 to 49%) |  |  | C (the percent of inhibition of NOX by the compounds ranges from 2000 to 49%)
5 | COc1cc2[nH]c(-c3ccc(N4CCCC4)cc3)c(O)c(=O)c2cc1OC [Compound 11] | ≤ 19 | ≤ 19 | 50 to 79 | ≥ 80 | ≤ 19 |  |  |  | C (the percent of inhibition of NOX by the compounds ranges from 2000 to 49%) |  |  | 
6 | COc1cc2[nH]c(-c3ccccc3S(C)(=O)=O)c(O)c(=O)c2cc1OC [Compound 23] | 50 to 79 | ≥ 80 | ≥ 80 | 50 to 79 | ≥ 80 | 50 to 79 |  |  |  |  |  | 

Now from value to compound, other results behind:

Row | inhibition at 0.1 µM [3] [%] | inhibition at 0.1 µM ([1]; 100 nM) [%] | inhibition at 1 µM ([1]; 1000 nM) [%] | inhibition at 1 µM [2] [%] | inhibition at 1 µM [3] [%] | inhibition at 0.1 µM [2] [%] | Structure (SMILES) | % Inhibition NOX1 ([1]; 100 nM) | % Inhibition NOX1 ([1]; 1000 nM) | % Inhibition NOX4 ([2]; 100 nM) | % Inhibition NOX4 ([2]; 1000 nM) | % Inhibition NOX2 ([3]; 1000 nM) | % Inhibition NOX2 ([3]; 100 nM)
7 | ≤ 19 |  |  |  |  |  | COc1cc2[nH]c(-c3ccc(Cl)cc3Cl)c(O)c(=O)c2cc1OC [Compound 49] | A (the percent of inhibition of NOX by the compounds is larger than or equals to 80%) | A (the percent of inhibition of NOX by the compounds is larger than or equals to 80%) | C (the percent of inhibition of NOX by the compounds ranges from 2000 to 49%) | B (the percent of inhibition of NOX by the compounds ranges from 50% o to 79% o) | A (the percent of inhibition of NOX by the compounds is larger than or equals to 80%) | 
8 | 50 to 79 |  |  |  |  |  | COc1cc2[nH]c(-c3ccccc3C(F)(F)F)c(O)c(=O)c2cc1OC.Cl [Compound 42, 3-hydroxy-6,7-dimethoxy-2-(2-(trifluoromethyl)phenyl) quinolin-4(1H)-one hydrochloride] | A (the percent of inhibition of NOX by the compounds is larger than or equals to 80%) | A (the percent of inhibition of NOX by the compounds is larger than or equals to 80%) | B (the percent of inhibition of NOX by the compounds ranges from 50% o to 79% o) | B (the percent of inhibition of NOX by the compounds ranges from 50% o to 79% o) | A (the percent of inhibition of NOX by the compounds is larger than or equals to 80%) | 
9 | 50 to 79 | ≤ 19 | ≥ 80 | ≤ 19 | ≥ 80 | ≤ 19 | COc1cc2[nH]c(-c3ccccc3N)c(O)c(=O)c2cc1OC [Compound 30, 2-(2-aminophenyl)-3-hydroxy-6,7-dimethoxyquinolin-4(1H)-one] |  |  |  |  |  | 
10 |  | ≤ 19 | ≥ 80 | 50 to 79 | 50 to 79 | ≤ 19 | COc1ccccc1-c1[nH]c2cccc(-c3cccc(N(C)C)c3)c2c(=O)c1O [Compound 40] |  |  |  |  |  | C (the percent of inhibition of NOX by the compounds ranges from 2000 to 49%)
